Assay: In vitro release of sunitinib from PLGA nanofiber-based mesh
Type: physicochemical
Conditions: 10% sunitinib/PLGA (w/w) (FIG. 14)

With `CCN(CC)CCNC(=O)c1c(C)[nH]c(/C=C2\C(=O)Nc3ccc(F)cc32)c1C` [sunitinib, Sunitinib malate] the “duration of in vitro sustained release” value was 30 days.

Source: patent US20190071796A1, “PROCESS AND APPARATUS FOR MAKING ALIGNED OR TWISTED ELECTROSPUN FIBERS AND DEVICES” (The Johns Hopkins University, priority 2016, published 2019)
